Measured values reported in patent US5106851A, “Benzofused-N-containing heterocycle derivatives” (Istituto de Angeli S.p.A., priority 1989, dated 1992).
Like-named read-outs stand apart in the source and are kept apart here.

Experiments:
[1] = tested on: muscarinic responses in guinea pig longitudinal ileum and guinea pig paced left atria; conditions: prototype compound, in words; cited from earlier work
guinea pig left atria = target: T1, guinea pig left atria (Cavia porcellus, UniProt H0VRN8); test: Functional studies in vitro, guinea pig paced left atria, bethanechol negative inotropic effect
T1 construct: guinea pig paced left atria; from tissue; host or cells: isolated guinea pig left atria
T1 sequence (H0VRN8 1-466): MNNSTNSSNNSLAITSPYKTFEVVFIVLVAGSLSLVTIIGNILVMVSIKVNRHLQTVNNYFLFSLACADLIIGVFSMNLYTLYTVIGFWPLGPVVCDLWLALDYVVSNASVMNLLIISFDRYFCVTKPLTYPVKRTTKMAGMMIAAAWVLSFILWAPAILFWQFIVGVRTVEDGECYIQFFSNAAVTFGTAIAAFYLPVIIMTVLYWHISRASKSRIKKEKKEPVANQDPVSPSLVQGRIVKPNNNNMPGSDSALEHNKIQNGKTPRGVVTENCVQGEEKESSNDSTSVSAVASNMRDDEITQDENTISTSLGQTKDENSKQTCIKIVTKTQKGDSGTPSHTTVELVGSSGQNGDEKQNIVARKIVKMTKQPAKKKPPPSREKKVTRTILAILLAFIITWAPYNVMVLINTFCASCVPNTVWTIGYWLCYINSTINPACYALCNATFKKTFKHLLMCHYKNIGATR
From the text: (§1) Antimuscarinic activity and selectivity were examined in in vitro by receptor binding studies in two tissues endowed with M1 and M2 muscarinic receptors (cerebral cortex, heart), in functional studies in isolated guinea pig ileum and guinea pig paced left atria and in in vivo functional tests on bronchi and heart of the anaesthetized guinea pig.
The tissues were mounted in the Ewen's solution (millimolar: NaCl, 131.6; KCl, 5.6; CaCl2, 2.16; NaHCO3, 24.9; NaH2 PO4, 1.03; glucose, 11; and sucrose, 13) at 32° C. and stimulated through platinum electrodes by squarewave pulses (2 msec, 3 Hz, 100% above threshold voltage, delivered by a Grass S 48 stimulator). Inotropic activity was recorded isometrically (Statham transducer, Battaglia Rangoni ESO 300 recorder). Cumulative concentrations of bethanecol (1-30 μM) were used to induce a negative inotropic effect. Kb values were estimated as above described.

Muscarinic M2 = target: T2, Muscarinic M2 (Rattus norvegicus, UniProt P10980); test: Displacement of 3H-NMS from total heart homogenate (receptor binding studies in vitro)
T2 construct: displacement of ^3 H-NMS from total heart homogenate; from tissue; host or cells: total heart homogenate
T2 sequence (P10980 1-466): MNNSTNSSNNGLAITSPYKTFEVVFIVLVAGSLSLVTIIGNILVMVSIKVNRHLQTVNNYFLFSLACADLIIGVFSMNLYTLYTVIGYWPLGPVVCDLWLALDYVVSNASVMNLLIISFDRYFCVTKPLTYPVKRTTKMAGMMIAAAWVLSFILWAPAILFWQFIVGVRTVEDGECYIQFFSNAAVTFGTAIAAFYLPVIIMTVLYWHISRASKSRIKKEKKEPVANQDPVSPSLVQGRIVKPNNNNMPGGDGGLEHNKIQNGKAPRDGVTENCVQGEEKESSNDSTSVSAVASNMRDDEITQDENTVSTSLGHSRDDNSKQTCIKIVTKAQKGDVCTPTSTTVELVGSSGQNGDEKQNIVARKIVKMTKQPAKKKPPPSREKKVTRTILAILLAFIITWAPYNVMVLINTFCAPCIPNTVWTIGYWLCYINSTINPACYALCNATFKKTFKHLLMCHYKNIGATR
Protocol: (§2) Muscarinic M1 activity was determined by studying the displacement of ^3 H-pirenzepine from cerebral cortex homogenate according to the procedure reported below: The cerebral cortex donors were male CD-COOBBS rats, 220-250 g body weight. The homogenization process was carried out in a Potter-Evelhjem apparatus in the presence of Na^+ /Mg^++ HEPES buffer; pH 7.4 (100 mM NaCl, 10 mM MgCl2, 20 mM HEPES); by filtering the suspension through two layers of cheesecloth. Binding curves for the under study compounds were derived indirectly from competition experiments against 0.5 nM ^3 H-pirenzepine labelling the muscarinic receptors of the cerebral cortex. 1 ml of the homogenate was incubated for 45 min at 30° C. in the presence of a maker ligand and different concentration of the cold ligand, conditions under which equilibrium was reached as determined by appropriate association experiments. The incubation was terminated by centrifugation (12,000 rpm for 3 min) at room temperature using an Eppendorf microcentrifuge. The resultant pellet was washed twice with 1.5 ml saline to remove the free radioactivity and it was allowed to dry. The tips of the tubes containing the pellet were cut off and 200 μl of tissue solubilizer (Lumasolve, Lumac) were added and left to stand overnight. Radioactivity was then counted after addition of 4 ml of liquid scintillation mixture (Dimilume/Toluene 1+10 v:v, Packard).
(§3) Assays were carried out in triplicate or quadruplicate and the non-specificbinding was defined as the radioactivity bound or entrapped in the pellet when the incubation medium contained 1 μM atropine sulphate. Non-specific binding averaged less than 30%. KD values (dissociation constants) were obtained by non-linear regression analysis on the basis of one binding site model with TOPFIT-pharmacokinetic programme package (G. Heinzel "Pharmacokinetics During Drug Development: Data Analysis and Evaluation Techniques" Eds. G. Bolzer and J. M. Van Rossum; p. 207, G. Fisher, New York, 1982) after correction for the radioligand occupancy shift according to the equation: KD =IC50 /1+*C/*KD, where *C and *KD represent the concentration and the dissociation constants of the radioligand, used respectively. Muscarinic M2 activity was examined by studing the displacement of ^3 H-NMS from total heart homogenate according to a procedure identical to the one already described hereinbefore for the muscarinic M1 activity.

[2] = tested on: Muscarinic receptors in the heart; test: In vivo inhibition of acetylcholine-induced bradycardia in the anaesthetized guinea pig; conditions: Cavia porcellus, iv, 5 min; i.v., 5 min before acetylcholine 50 μg/kg; dose in mol/kg; read-out: -log ED50, heart (converted)
Protocol: (§4) Guinea pigs of either sex (550-600 g) were anaesthetized with urethane (1.4 g/kg, i.p.). A jugular vein was cannulated for injection of drugs. Heparin (200 I.U./kg) was injected i.v. A cannula was placed in the trachea and the animals were artificially respirated with oxygenated room air by means of a positive pressure pump (Braun-Melsungen) with a rate of 80 strokes/min. A side arm of the tracheal cannula was connected to a water manometer of 10 cm height. The respiratory volume was adjusted so that the maximal intratracheal pressure during inspiration just attained to a pressure of 10 cm water.
A cannula was placed in the left common carotid artery and arterial blood pressure was measured via a Bell and Howell 4-327 I pressure transducer connected to an IFD recording device. Cardiac frequency was measured by a ratemeter, triggered by the arterial pulsewave.
The drugs to be tested were injected via the jugular vein and 5 min later bronchial resistence (%) and the decrease in cardiac frequence (beats/min) to acetylcholine (50 μg/kg i.v. and i.a.) was measured. Dose response curves were constructed by plotting the percent inhibition of bronchoconstriction and bradycardia against the logarithm of the dose (mol/kg) of the drugs to be tested.

guinea pig ileum = target: T3, guinea pig ileum (Cavia porcellus, UniProt H0W1Z3); test: Functional studies in vitro, isolated guinea pig ileum contracted with bethanechol
T3 construct: A 2 cm section of terminal ileum was prepared; from tissue; host or cells: isolated guinea pig terminal ileum
Protocol: as §1
Responses were recorded isotonically. Kb values were calculated according to Arunlakshana and Shild (British Journal of Pharmacology 14, 48-54, 1959).

Muscarinic M1 = target: T4, Muscarinic M1 (Rattus norvegicus, UniProt P08482); test: Displacement of 3H-pirenzepine from cerebral cortex homogenate (receptor binding studies in vitro)
T4 construct: displacement of ^3 H-pirenzepine from cerebral cortex homogenate; from tissue; host or cells: rat cerebral cortex homogenate
T4 sequence (P08482 1-460): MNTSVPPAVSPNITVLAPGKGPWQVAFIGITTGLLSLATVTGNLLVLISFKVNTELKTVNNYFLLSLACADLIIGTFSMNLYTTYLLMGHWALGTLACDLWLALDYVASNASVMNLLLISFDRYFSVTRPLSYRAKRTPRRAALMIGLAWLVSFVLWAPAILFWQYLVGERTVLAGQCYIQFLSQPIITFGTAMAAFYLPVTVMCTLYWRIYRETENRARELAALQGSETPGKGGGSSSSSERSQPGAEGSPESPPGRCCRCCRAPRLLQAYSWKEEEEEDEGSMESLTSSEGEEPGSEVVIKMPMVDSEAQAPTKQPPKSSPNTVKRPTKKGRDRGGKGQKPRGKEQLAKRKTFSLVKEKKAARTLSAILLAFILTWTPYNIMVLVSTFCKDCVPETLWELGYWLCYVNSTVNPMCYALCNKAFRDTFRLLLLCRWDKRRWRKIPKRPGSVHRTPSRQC
Protocol: as §2, §3

[3] = tested on: Muscarinic receptors in the bronchi; test: In vivo inhibition of acetylcholine-induced bronchoconstriction in the anaesthetized guinea pig; conditions: Cavia porcellus, iv, 5 min; i.v., 5 min before acetylcholine 50 μg/kg; dose in mol/kg; read-out: -log ED50, bronchi (converted)
Protocol: as §4
Excepts for some modifications, the effects of the drugs on bronchial tone was measured according to the method described by Konzett and Rossler (1940). The bronchoconstriction-evoked volume of respiratory gas mixture (overflow) passing through the water manometer was measured by means of a FLEISCH tube pneumotachometer (Model 0000) connected to a SP 2040 D differential pressure transducer (HSE). Registration was performed on a IFD recording device. […]
The drugs to be tested were injected via the jugular vein and 5 min later bronchial resistence (%) and the decrease in cardiac frequence (beats/min) to acetylcholine (50 μg/kg i.v. and i.a.) was measured. […]

[4] = tested on: receptors with low affinity to Pirenzepine (M2 type); conditions: mainly in effector organs; cited from earlier work
[5] = total heart homogenate, 3H-NMS, read-out: KD, M2 (heart)

T3 sequence (H0W1Z3 1-590): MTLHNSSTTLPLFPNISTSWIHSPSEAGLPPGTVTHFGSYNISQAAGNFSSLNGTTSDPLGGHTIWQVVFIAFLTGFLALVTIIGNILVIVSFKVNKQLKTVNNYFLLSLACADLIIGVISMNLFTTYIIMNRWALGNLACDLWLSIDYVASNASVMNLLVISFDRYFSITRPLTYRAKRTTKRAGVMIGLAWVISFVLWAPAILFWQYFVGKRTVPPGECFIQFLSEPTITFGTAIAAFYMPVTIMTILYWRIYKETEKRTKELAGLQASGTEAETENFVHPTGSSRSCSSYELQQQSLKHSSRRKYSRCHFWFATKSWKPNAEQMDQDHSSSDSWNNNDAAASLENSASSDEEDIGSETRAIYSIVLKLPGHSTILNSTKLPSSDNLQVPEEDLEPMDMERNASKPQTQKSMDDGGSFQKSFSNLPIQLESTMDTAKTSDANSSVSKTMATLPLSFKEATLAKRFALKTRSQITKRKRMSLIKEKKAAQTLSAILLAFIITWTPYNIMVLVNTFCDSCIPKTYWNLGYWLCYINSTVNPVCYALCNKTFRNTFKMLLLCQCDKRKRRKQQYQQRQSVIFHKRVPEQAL

| Structure (SMILES) | Kb (guinea pig left atria) [nM] | Kb (guinea pig ileum) [nM] | Kd (Muscarinic M1) [nM] | Kd (Muscarinic M2; [5]) [nM] | further results |
| --- | --- | --- | --- | --- | --- |
| CCN(CC)CC1CCCCN1CC(=O)N1c2ccccc2C(=O)Nc2cccnc21 (centres unmarked) [AF-DX-116, 11-2-{[2-(diethylamino)methyl-1-piperidinyl]acetyl}-5,11-dihydro-6H-pyrido (2,3-b)(1,4)benzodiazepin-6-one] |  |  |  |  | tissue selectivity among muscarinic antagonists [1]: cardioselective |
| C[N+]1(C)CCC(OC(=O)C(c2ccccc2)c2ccccc2)CC1 [Compound 4-DAMP, 4-diphenylacetoxy-N-methylpiperidine methobromide] |  |  |  |  | tissue selectivity among muscarinic antagonists [1]: smooth muscle selective |
| CN1[C@@H]2CC[C@H]1C[C@@H](OC(=O)N1Cc3ccccc3NC1=O)C2 [Compound 16, 1,4-dihydro-2(H)-2-oxo-3-quinazoline carboxylic acid-(endo-8-methyl-8-azabicyclo[3.2.1]oct-3-yl), ester] | 122 | 1.5 |  |  | Kd (Muscarinic M2): 133 nM; ED50 [2]: 1 µmol/kg; Kd (Muscarinic M1; cerebral cortex homogenate, 0.5 nM 3H-pirenzepine, 45 min at 30° C., pH 7.4, read-out: KD, M1 (cortex)): 1 nM; ED50 [3]: 0.00794 µmol/kg |
| CN1[C@@H]2CC[C@H]1C[C@@H](NC(=O)N1Cc3ccccc3NC1=O)C2 [Compound 23, N-(endo-8-methyl-8-azabicyclo[3.2.1]oct-3-yl)-1,4-dihydro-2(H)-2-oxo-3-quinazoline carboxamide] |  |  | 1 |  | Kb (guinea pig left atria; functional studies, guinea pig paced left atria, bethanechol 1-30 μM, 32° C., read-out: Kb, heart): 22 nM; Kd (Muscarinic M2): 60 nM; Kb (guinea pig ileum; functional studies, guinea pig ileum, bethanechol 0.3-10 μM, read-out: Kb, ileum): 0.6 nM |
| CN1[C@@H]2CC[C@H]1C[C@@H](OC(=O)N1Cc3ccc(Cl)cc3NC1=O)C2 [Compound 25, 7-chloro-1,4-dihydro-2(H)-2-oxo-3-quinazoline carboxylic acid-(endo-8-methyl-8-azabicyclo[3.2.1]oct-3-yl), ester] | 2200 | 16 | 7 | 1470 |  |
| CN1[C@@H]2CC[C@H]1C[C@@H](OC(=O)N1Cc3cc(F)ccc3NC1=O)C2 [Compound 26, 1,4-dihydro-6-fluoro-2(H)-2-oxo-3-quinazoline carboxylic acid-(endo-8-methyl-8-azabicyclo[3.2.1]oct-3-yl), ester] | 250 | 4.5 | 3 | 400 |  |
| CN1C2CCC1CC(OC(=O)N1C(=O)Nc3ccccc3C1O)C2 (stereo not drawn) [Compound 49, 1,4-dihydro-4-hydroxy-2(H)-2-oxo-3-quinazolinecarboxylic acid-(endo-8-methyl-8-azabicyclo[3.2.1]oct-3-yl), ester] | 75 | 1 | 2 | 250 |  |
| CN1CCN(CC(=O)N2c3ccccc3C(=O)Nc3cccnc32)CC1 [Pirenzepine] |  |  |  |  | affinity at M2 type receptors [4]: low affinity |
| CC(C[N+](C)(C)C)OC(N)=O (centres unmarked) [bethanechol, reference compound] |  |  |  |  | EC50 (guinea pig ileum; guinea pig terminal ileum, Tyrode solution, cumulative conc. 0.3-10 μM, read-out: EC50 of bethanechol (contraction)): 1500 nM |
